Experimental data as given in article doi:10.1101/2023.09.04.556216v2 (bioRxiv, 2023).
Values belong to the molecule of their own block, whether it stands above or below them. Numbered stars: 1 amine (or outer) side, 2 acyl side, 3 side chain; on linkers, the order of the positions; unused ones are H or OH. Bridge positions count the residues as written; N and C are the ends. Peptide text beside a SMILES is read from it. Biphenyl(4,4'-CH2)2 = c1cc(-c2ccc(C[*:2])cc2)ccc1C[*:1]

How the values were obtained:
PC3 xenograft tumor = PC3 xenograft tumor model; type: in vivo, BALB/c nude mice; details: for decrease of Ki67 in tumor (IHC) / increase of caspase-3 expression in tumor (IHC) / reduction in METTL3 expression in tumor (IHC) / reduction in m6A levels in tumor (IHC): 20 mg/kg peritumoral; for reduction in METTL3 expression in tumor (IHC) / reduction in m6A levels in tumor (IHC): compared to R9 and PBS groups; for average tumor mass relative to PBS group: 20 mg/kg, 10 days of treatment, Fig. S19c
PC3 or DU145 = test: Colony formation assay; type: cell-based; details: 15 μM peptide, PC3 or DU145, n=3
m6A modification = test: m6A ELISA in cells; type: cell-based; details: PC3 or DU145 cells, Fig. 5f
METTL3 = METTL3 (Homo sapiens, UniProt Q86U44); test: Western blot of METTL3/METTL14 level and half-life; type: cell-based; details: for METTL3 half-life: PC3 cells pre-treated with cycloheximide (CHX), WB, 25 μM over 12 h; for METTL3 (and METTL14) protein levels by WB: PC3 cells, RSM3 25 μM, 12 h
Chain of METTL3 (Q86U44 whole entry): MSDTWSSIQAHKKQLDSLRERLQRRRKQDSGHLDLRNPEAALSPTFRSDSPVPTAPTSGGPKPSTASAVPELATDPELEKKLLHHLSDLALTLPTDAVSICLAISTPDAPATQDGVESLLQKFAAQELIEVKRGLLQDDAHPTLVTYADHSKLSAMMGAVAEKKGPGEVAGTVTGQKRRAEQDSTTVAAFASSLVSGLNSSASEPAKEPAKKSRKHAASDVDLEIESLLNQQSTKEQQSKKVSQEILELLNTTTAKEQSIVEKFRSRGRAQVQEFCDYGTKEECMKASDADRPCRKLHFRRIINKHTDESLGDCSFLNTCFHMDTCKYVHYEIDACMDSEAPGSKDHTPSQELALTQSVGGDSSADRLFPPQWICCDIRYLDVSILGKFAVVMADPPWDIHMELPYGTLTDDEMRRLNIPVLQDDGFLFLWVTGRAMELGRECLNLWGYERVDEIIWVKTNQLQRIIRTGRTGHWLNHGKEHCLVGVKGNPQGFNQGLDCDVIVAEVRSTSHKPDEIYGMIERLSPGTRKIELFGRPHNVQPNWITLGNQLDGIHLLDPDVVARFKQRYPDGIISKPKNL

PCa cells = test: EdU labeling of cell proliferation; type: cell-based; details: 15 μM peptide, EdU labeling 2 h
PC3 cells [1] = test: Flow cytometry cell cycle analysis, PC3; type: cell-based; details: 15 µM, 12 h, PBS group ∼8.5%
DU145 = test: Annexin V-FITC flow cytometry apoptosis, DU145; type: cell-based; details: 15 μM peptide, PBS ∼5%
PC3 cells [2] = test: Cell viability; type: cell-based; parameters: unit not given beside the values; details: comparison experiment Fig. S17, unit not given
METTL3/METTL14 complex = METTL3/METTL14 complex (Homo sapiens, UniProt Q86U44); test: Co-Immunoprecipitation of METTL3 and METTL14; type: cell-based; details: Co-IP, quantitative analysis, Fig. S11
Chain of METTL3/METTL14 complex (Q86U44 whole entry, one chain of several): as the sequence (Q86U44 whole entry) above

[3] = Serum stability in 25% FBS; type: in vitro ADME, bovine; details: 25% FBS (serum:buffer 1:3), pH 7.4
DU145 cells = test: Cell viability; type: cell-based; parameters: unit not given beside the values; details: comparison experiment Fig. S17, unit not given
PC3 cells [4] = test: Annexin V-FITC flow cytometry apoptosis, PC3; type: cell-based; details: 15 μM peptide
ASPC-1 xenograft tumors = test: ASPC-1 xenograft tumor model; type: in vivo, mice; details: 20 mg/kg, 10 days of treatment
[5] = peri-tumoral injection 20 mg/kg every two days for two weeks

METTL3 half-life (METTL3): dramatically reduced half-life
Molecule: CSCC[C@H](NC(=O)[C@H](CS)NC(=O)[C@H](CCCNC(=N)N)NC(=O)[C@H](CCCNC(=N)N)NC(=O)[C@H](CCCNC(=N)N)NC(=O)[C@H](CCCNC(=N)N)NC(=O)[C@H](CCCNC(=N)N)NC(=O)[C@H](CCCNC(=N)N)NC(=O)[C@H](CCCNC(=N)N)NC(=O)[C@H](CCCNC(=N)N)NC(=O)[C@H](CCCNC(=N)N)NC(=O)[C@@H](N)CCCNC(=N)N)C(=O)N[C@@H](CCC(=O)O)C(=O)N[C@@H](CC(C)C)C(=O)NCC(=O)N[C@@H](CCCNC(=N)N)C(=O)N[C@@H](CCC(=O)O)C(=O)N[C@@H](CS)C(=O)N[C@@H](CC(C)C)C(=O)N[C@@H](CC(N)=O)C(=O)N[C@@H](CC(C)C)C(=O)N[C@@H](Cc1c[nH]c2ccccc12)C(N)=O [RM3] (H-RRRRRRRRRRCMELGRECLNLW-NH2; N-terminus assumed)
decrease of Ki67 in tumor (IHC) (PC3 xenograft tumor): ~65% | increase of caspase-3 expression in tumor (IHC) (PC3 xenograft tumor): ~1.8 fold | reduction in METTL3 expression in tumor (IHC) (PC3 xenograft tumor): ~50% | reduction in m6A levels in tumor (IHC) (PC3 xenograft tumor): ~50% | tumor growth compared to R9 or PBS control groups (PC3 xenograft tumor; [5]): significant suppression of tumor growth | fold reduction in colony formation (PC3 or DU145): ~20 fold | m6A modification level relative to R9 and PBS treatment groups (m6A modification): ~20% | EdU signal relative to PBS control group (PCa cells): ~47.0%

Molecule: CSCC[C@@H]1NC(=O)[C@@H](NC(=O)[C@H](CCCNC(=N)N)NC(=O)[C@H](CCCNC(=N)N)NC(=O)[C@H](CCCNC(=N)N)NC(=O)[C@H](CCCNC(=N)N)NC(=O)[C@H](CCCNC(=N)N)NC(=O)[C@H](CCCNC(=N)N)NC(=O)[C@H](CCCNC(=N)N)NC(=O)[C@H](CCCNC(=N)N)NC(=O)[C@H](CCCNC(=N)N)NC(=O)[C@@H](N)CCCNC(=N)N)CSCc2ccc(cc2)-c2ccc(cc2)CSC[C@@H](C(=O)N[C@@H](CC(C)C)C(=O)N[C@@H](CC(N)=O)C(=O)N[C@@H](CC(C)C)C(=O)N[C@@H](Cc2c[nH]c3ccccc23)C(N)=O)NC(=O)[C@H](CCC(=O)O)NC(=O)[C@H](CCCNC(=N)N)NC(=O)CNC(=O)[C@H](CC(C)C)NC(=O)[C@H](CCC(=O)O)NC1=O [RSM3] (H-RRRRRRRRRRCMELGRECLNLW-NH2; linker 11-18 via Biphenyl(4,4'-CH2)2; N-terminus assumed)
cells arrested in sub-G1 phase, PC3 (PC3 cells [1]): ~29.2% | cells that entered apoptosis, DU145 (DU145): ~30% | IC50 in PC3, RSM3 vs STM2457 (PC3 cells [2]): 26.5 ± 1.2 | reduction of METTL3-METTL14 interaction (METTL3/METTL14 complex): fifty | decrease of Ki67 in tumor (IHC) (PC3 xenograft tumor): ~65% | increase of caspase-3 expression in tumor (IHC) (PC3 xenograft tumor): ~1.8 fold | reduction in METTL3 expression in tumor (IHC) (PC3 xenograft tumor): ~50% | reduction in m6A levels in tumor (IHC) (PC3 xenograft tumor): ~50% | average tumor mass relative to PBS group (PC3 xenograft tumor): ~37% | tumor growth compared to R9 or PBS control groups (PC3 xenograft tumor; [5]): significant suppression of tumor growth | tumor volume, fold smaller than controls (PC3 xenograft tumor; [5]): 2∼3 fold | remaining at 6 h, 200 µM [3]: ~41.8% | IC50 in DU145, RSM3 vs STM2457 (DU145 cells): 33.6 ± 1.5 | late-stage share of total apoptotic PC3 cells (PC3 cells [4]): ~90% | proportion of apoptotic cells, fold higher than RM3 (PC3 cells [4]): approximately 2 fold | cells that entered apoptosis, PC3 (PC3 cells [4]; PBS 4%): ~60% | tumor weight, lighter than PBS- and R9-treated controls (ASPC-1 xenograft tumors): ~50% | fold reduction in colony formation (PC3 or DU145): ~20 fold | m6A modification level relative to R9 and PBS treatment groups (m6A modification): ~20% | METTL3 half-life (METTL3): dramatically reduced half-life | METTL3 (and METTL14) protein levels by WB (METTL3): reduced | EdU signal relative to PBS control group (PCa cells): ~35.0%

IC50 in PC3, RSM3 vs STM2457 (PC3 cells [2]): 95.5 ± 3.6 | IC50 in DU145, RSM3 vs STM2457 (DU145 cells): 149.3 ± 10.1 | METTL3 (and METTL14) protein levels by WB (METTL3): no influence
Molecule: STM2457 [reference compound]
average tumor mass relative to PBS group (PC3 xenograft tumor): 70%
